Data published in patent publication US20230346793A1, “Compositions and Methods for Treating SARS-CoV-2” (priority 2020, published 2023).

Tests used:
calmodulin = calmodulin (Homo sapiens, UniProt P0DP23); conditions: Winkler 1987; Zimmer and Hofmann 1984; Reiermann and Rüegg 1986; cited from earlier work
SARS-CoV-2 = experiment: microbe, parasite or virus in culture; assay type: cell-based; conditions: for EC50: Severe acute respiratory syndrome coronavirus 2, Vero C1008, in Primates, read-out: EC50 (effective concentration that gave half-maximal response), inhibition of SARS-CoV-2 infection; for inhibition of SARS-CoV-2 infection: VeroE6 plaque reduction assay, dose-dependent analysis

Q: With `CC(C)COCC(CN(Cc1ccccc1)c1ccccc1)N1CCCC1` (centres unmarked) [BPD, Bepridil] as the compound, how does the inhibition of calmodulin (calmodulin) read?
A: inhibit calmodulin

Q: What about the EC50 (SARS-CoV-2) of the same compound?
A: 7.13 µM

Q: And the “inhibition of SARS-CoV-2 infection” value (SARS-CoV-2)?
A: strong inhibition of SARS-CoV-2 infection in a dose-dependent manner

Q: What does the source list for `CN1CCN(CCCN2c3ccccc3Sc3ccc(C(F)(F)F)cc32)CC1` [TFP, Trifluoperazine]?
A: EC50 (SARS-CoV-2): 7.7 µM; inhibition of SARS-CoV-2 infection (SARS-CoV-2): potently inhibited SARS-CoV-2 infection in a dose-dependent fashion
